Experimental data as given in patent US11026972B2, “Methods for generating macrophages with enhanced cancer phagocytosis” (Georgia State University Research Foundation, Inc., priority 2016, dated 2021).

Key:
[1] = test system: PEMs; experiment: Activated PEM phagocytosis toward RBCs in the presence of antibodies/inhibitors against phagocytic receptors; assay type: cell-based, mouse; conditions: antibodies 10 μg/mL; BLT1 5 μM; laminarin 100 μg/mL; heparin 40 U/mL
Procedure: FIGS. 6A-6D include data related to our investigation of possible phagocytic receptors on macrophages for phagocytosing healthy self-cells. […] PEMs, with or without (ctl.) treatment with LPS, IL-17, IL-6, or PMA, were labeled for cell surface LRP1 and CRT followed by FACS. […] Activated PEM phagocytosis toward RBCs was tested in the presence of antibodies against SR-A, Fc receptor Cd16/32 (10 μg/mL of each), inhibitors against SR-B (BLT1, 5 μM), dectin (laminarin, 100 μg/mL), complement (heparin, 40 U/mL), and antibody against Cd11b (10 μg/mL). […] Data presented in each panel represent at least three independent experiments with n≥4, if applicable.
Ex vivo macrophage phagocytosis: Mouse spleens were harvested and minced in cold HBSS followed by passing through nylon meshes. The spleen cells in suspensions were collected by centrifugation followed by washing. After lysis of RBC, splenocytes were plated in cell culture dishes in DMEM with 10% FBS and cultured for 2 h followed by removal of non-adherent cells. The adherent cells, ˜70% being macrophages as determined by anti-F4/80 staining, were tested for phagocytosis. For phagocytosis of RBC or other tissue cells, targeted cells were labeled with CFSE prior to addition into the macrophage-containing wells. Macrophages and target cells, at a ratio of 1:5-10 for RBC or 1:1-2 for other cells, were co-incubated for 30 min at 37° C. followed by gently washing. Macrophage phagocytosis of target cells was then analyzed by fluorescence microscopy and/or by FACS. […] Alternatively, the freshly isolated splenocytes in suspension were incubated with CFSE-labeled RBC and other phagocytic targets for 30 min at 37° C. Macrophage phagocytosis was then determined by FACS after labeling macrophages with anti-F4/80. To test phagocytosis of apoptotic cells, B16 cells were irradiated by UV for 150 seconds at 50 J/m^2 strength. Apoptosis was analyzed at 2, 4, 6, 8 and 18 h post UV irradiation by labeling of the cells with anti-phosphatidylserine (PS) antibody (data not shown) or FITC-conjugated annexin V (data not shown). Cells that were confirmed to be apoptotic were trypsinized, labeled with CFSE, and then co-incubated with macrophages for 30 min at 37° C. After gentle washing, phagocytosis was analyzed by fluorescence microscopy and/or FACS. To test phagocytosis of bacteria and the fungal product zymosan, AlexaFluor-conjugated E.coli strain […] (2 μl suspension, ˜2 μg) or zymosan bioparticles (1 μl suspension, ˜2 μg) (both from Invitrogen) were incubated with macrophages for 30 min followed by washing and analyses. Similar procedures were performed to test phagocytosis of macrophages from various sources. […]

[2] = test system: SIRPα^−/− and CD47^−/− mice; experiment: Acute anemia and splenomegaly in mice deficient of CD47-SIRPα-mediated inhibition under inflammatory conditions; assay type: in vivo, mouse; conditions: SIRPα^−/− and CD47^−/− mice; zymosan 3 times every other day; IL-6 2×10 μg/kg i.v.; LPS 0.25 mg/kg i.p.; CFA s.c.
Excerpt: FIGS. 1A-1K illustrate our assessment of acute anemia in mice deficient of CD47-SIRPα-mediated inhibition under inflammatory conditions. FIG. 1A includes a schematic drawing of a wild type (WT) and targeted allele of SIRPα (“SIRPα”) and data related to the generation of SIRPα “knock out” (KO) mice. […] Western blot (WB) analysis confirmed the depletion of SIRPα (˜120 kDa) protein in bone marrow leukocytes from SIRPα^−/− mice. FIG. 1B includes a photograph of intestinal tissue and a line graph charting the change in body weight of mice in which colitis had been induced by treatment with 1% or 2% DSS. […] FIGS. 1C and 1D include data related to acute anemia and splenomegaly developed in SIRPα^−/− mice with colitis. WT mice and SIRPα^−/− mice treated with DSS (2% DSS for WT and 1% DSS for SIRPα^−/−) for 10 days were analyzed for the presence of […] (FIG. 1C) and the content of hemoglobin in peripheral blood (FIG. 1D). FIG. 1E includes a panel of photomicrographs in which hematoxylin and eosin (H&E) was used to stain sections of spleens from WT and SIRPα^−/− mice treated with 2% and 1% DSS for 10 days. The bar graph of FIG. 1E illustrates the hemoglobin content in the spleens of WT and SIRPα^−/− mice treated with water or DSS. FIG. 1F is a pair of line graphs showing the time course over which anemia developed in SIRPα^−/− mice when colitis was induced with DSS and the levels of IL-17 in the serum over that same period of time. FIG. 1G is a diagram showing that IL-17 neutralization ameliorates anemia and splenomegaly in SIRPα^−/− mice with colitis. An anti-IL-17 antibody (10 μg, i.v.) was given on days 6 and 8 (arrows) during DSS-induction of colitis. FIG. 1H is a diagram showing that IL-17-containing colitic serum induces acute anemia in SIRPα^−/− mice. Serum samples collected from healthy (Ctl.) and colitic WT mice (2% DSS, 10 d) were administered to healthy SIRPα^−/− mice (i.v., 3×, arrows) with or without an anti-IL-17 antibody. FIGS. 1I and 1J are illustrative graphs showing that IL-17 directly induces acute anemia and splenomegaly in SIRPα^−/− mice and Cd47^−/− mice. Healthy mice were given recombinant IL-17 (10 μg/kg, i.v.) on days 1 and 3 (arrows, FIG. 1J); anemia and splenomegaly were analyzed on day 5 (FIG. 1I) or in a time course manner (FIG. 1J). FIG. 1K includes diagrams showing that acute anemia and splenomegaly in SIRPα^−/− and Cd47^−/− mice under zymosan-peritonitis (3×, every other day), IL-6 administration ([…], i.v.), LPS (0.25 mg/kg, i.p.), and CFA (1×, s.c.) administrations. Error bars are ±SEM **P<0.01, ***P<0.001 vs. control or the beginning time point. Data presented in each panel represent at least three independent experiments with n≥4, if applicable.
Hemoglobin assay: To assay blood hemoglobin, 10 μl of whole blood were obtained from the tail vein followed by lysis in 1 ml distilled water. After centrifugation (13,000 rpm, 30 min), the hemoglobin-containing supernatants were collected and measured for the optical density at the wavelength of 540 nm.
Animal inflammation models: To induce peritonitis, mice (6-8 wk, 20-22 g) were intraperitoneally injected with 0.5 mg zymosan A (Sigma) in 0.5 ml sterile PBS followed by euthanasia at 2, 4, 6 and 8 hours. […] The colitic condition was then assessed by observing diarrhea, measuring body weight loss, increases of inflammatory cytokines, the shortage of the large intestine and intestinal tissue analyses (after euthanasia). […]

[3] = test system: splenic macrophages, PEMs and BMDMs; experiment: Ex vivo macrophage phagocytosis toward RBCs and other self-cells after activation; assay type: cell-based, mouse; conditions: PEM; lack of the CD47-SIRPα-mediated inhibition
Procedure: FIGS. 3A-3H include data related to our experiments assaying macrophage phagocytosis ex vivo. FIGS. 3A and 3B show macrophage phagocytosis of RBCs. Freshly isolated splenic macrophages (MØ) and peritoneal macrophages (PEM) and in vitro-derived BMDM (bone marrow-derived macrophages) were tested for phagocytosis toward CFSE-labeled Cd47^+ or Cd47^− RBCs. […] FIGS. 3F and 3G illustrate LPS and IL-17-activated PEM phagocytosis toward splenocytes (FIG. 3F), B16, and EL4 (FIG. 3G). Error bars are ±SEM. **P<0.01, ***P<0.001 vs. no treatment controls. […] PEM lavaged without (ctl.) or with Brewer thioglycollate (3%, i.p.) elicitation was tested. Error bars are ±SEM. ***P<0.001 vs. control PEM. Data presented in each panel represent at least three independent experiments with n≥4, if applicable.
FIGS. 4A-4E include data related to our experiments on macrophage phagocytic plasticity. FIG. 4A is a panel of illustrative line graphs showing that IL-10 inhibits macrophage phagocytosis toward “self.” PEMs were treated with LPS and activating cytokines along with various concentrations of IL-10 before testing their ability to phagocytose RBCs. FIG. 4B illustrates the phagocytic plasticity of WT red pulp macrophages. […] Treatments of cultured macrophages with LPS and IL-17 re-elicited their phagocytosis toward RBCs. […] Error bars are ±SEM. ***P<0.001 vs. freshly isolated splenic macrophages. FIG. 4D includes microscopic images of RBC phagocytosis by LPS- and IL-17-treated splenic macrophages. […] WT PEMs treated with LPS or IL-17 were further treated with Cd47^+ RBCs or Cd47-AP (10 min, 37° C.) followed by cell lysis, SIRPα immunoprecipitation, and WB detection of SIRPα phosphorylation (SIRPα^pY) and SHP-1 association. Data presented in each panel represent at least three independent experiments with n≥4, if applicable.
Ex vivo macrophage phagocytosis: Mouse spleens were harvested and minced in cold HBSS followed by passing through nylon meshes. The spleen cells in suspensions were collected by centrifugation followed by washing. After lysis of RBC, splenocytes were plated in cell culture dishes in DMEM with 10% FBS and cultured for 2 h followed by removal of non-adherent cells. The adherent cells, ˜70% being macrophages as determined by anti-F4/80 staining, were tested for phagocytosis. For phagocytosis of RBC or other tissue cells, targeted cells were labeled with CFSE prior to addition into the macrophage-containing wells. Macrophages and target cells, at a ratio of 1:5-10 for RBC or 1:1-2 for other cells, were co-incubated for 30 min at 37° C. followed by gently washing. Macrophage phagocytosis of target cells was then analyzed by fluorescence microscopy and/or by FACS. To better recognize macrophages, macrophages in wells were labeled with an anti-F4/80 or an anti-CD11b antibody. Alternatively, the freshly isolated splenocytes in suspension were incubated with CFSE-labeled RBC and other phagocytic targets for 30 min at 37° C. Macrophage phagocytosis was then determined by FACS after labeling macrophages with anti-F4/80. To test phagocytosis of apoptotic cells, B16 cells were irradiated by UV for 150 seconds at 50 J/m^2 strength. Apoptosis was analyzed at 2, 4, 6, 8 and 18 h post UV irradiation by labeling of the cells with anti-phosphatidylserine (PS) antibody (data not shown) or FITC-conjugated annexin V (data not shown). Cells that were confirmed to be apoptotic were trypsinized, labeled with CFSE, and then co-incubated with macrophages for 30 min at 37° C. After gentle washing, phagocytosis was analyzed by fluorescence microscopy and/or FACS. To test phagocytosis of bacteria and the fungal product zymosan, AlexaFluor-conjugated E.coli strain […] (2 μl suspension, ˜2 μg) or zymosan bioparticles (1 μl suspension, ˜2 μg) (both from Invitrogen) were incubated with macrophages for 30 min followed by washing and analyses. Similar procedures were performed to test phagocytosis of macrophages from various sources. […]

Molecule | LPS-induced PEM phagocytosis toward RBCs [1] | anemia and splenomegaly [2] | ability to induce macrophage phagocytosis toward self [3]
laminarin | failed to affect | – | –
heparin | failed to affect | – | –
CCCCCCC1CCCC1=NNC(N)=S (centres unmarked) [BLT1] | failed to affect | – | –
IL-6: recombinant murine cytokine, PeproTech (protein, UniProt P08505 25-211, looked up) Interleukin-6: FPTSQVRRGDFTEDTTPNRPVYTTSQVGGLITHVLWEIVEMRKELCNGNSDCMNNDDALAENNLKLPEIQRNDGCYQTGYNQEICLLKISSGLLEYHSYLEYMKNNLKDNKKDKARVLQRDTETLIHIFNQEVKDLHKIVLPTPISNALLTDKLESQKEWLRTKTIQFILKSLEEFLKVTLRSTRQT | – | induced the same result | have the ability to induce macrophage phagocytosis toward self
